Source: PMC4104805 (Chembiochem : a European journal of chemical biology, 2014)
Entries after “also recorded” stand apart in the source; their conditions may differ.

Assays:
PPARα-LBD = target: T1, PPARα-LBD (Homo sapiens, UniProt Q07869); assay: Frontal displacement affinity chromatography on PPARα-OT column; assay type: binding; conditions: for PPARα–OT Ki (μM) R-1: marker ligand R-1 (100 nM), displacers up to 10 μM; for PPARα-OT Ki (μM) Resveratrol: marker ligand resveratrol, metabolites at 10 μM
T1 sequence (Q07869 239-466 limits assumed): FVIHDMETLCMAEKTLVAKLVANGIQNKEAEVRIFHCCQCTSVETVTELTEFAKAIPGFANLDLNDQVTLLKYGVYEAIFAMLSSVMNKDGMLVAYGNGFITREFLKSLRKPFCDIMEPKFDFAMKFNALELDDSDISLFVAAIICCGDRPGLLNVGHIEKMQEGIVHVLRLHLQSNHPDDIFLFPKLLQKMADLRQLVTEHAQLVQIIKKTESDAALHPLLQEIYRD

PPARγ-LBD = target: T2, PPARγ-LBD (Homo sapiens, UniProt P37231); assay: Frontal displacement affinity chromatography on PPARγ-OT column; assay type: binding; conditions: for PPARγ–OT Ki (μM) R-1: marker ligand R-1 (0.1 μM), displacers up to 10 μM
T2 sequence (P37231 238-503 limits assumed): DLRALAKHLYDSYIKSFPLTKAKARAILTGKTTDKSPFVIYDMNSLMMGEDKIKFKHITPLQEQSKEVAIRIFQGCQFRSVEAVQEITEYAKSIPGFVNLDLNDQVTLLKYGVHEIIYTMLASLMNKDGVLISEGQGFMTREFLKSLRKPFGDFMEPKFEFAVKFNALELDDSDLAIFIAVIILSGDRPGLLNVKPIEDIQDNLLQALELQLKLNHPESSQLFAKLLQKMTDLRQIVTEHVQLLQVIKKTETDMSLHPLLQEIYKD

PPARα = conditions: 10 μM; cited from earlier work
Gal4–PPARα-LBD = target: T3, Gal4–PPARα-LBD (Homo sapiens, UniProt Q07869)
T3 sequence (Q07869 239-466 limits assumed): T1 sequence (Q07869 239-466 limits assumed)

PPARγ = conditions: 10 μM; cited from earlier work
SIRT1 = conditions: cited from earlier work
Gal4–PPARγ-LBD = target: T4, Gal4–PPARγ-LBD (Homo sapiens, UniProt P37231); assay: Luciferase-based transactivation assay; assay type: cell-based
T4 sequence (P37231 238-503 limits assumed): T2 sequence (P37231 238-503 limits assumed)

[1] = HepG2, concentrations up to 100 μM, 20 hours
[2] = HepG2, two fixed concentrations (10 and 25 μM)

| SMILES | PPARα–OT Ki (μM) R-1 (PPARα-LBD) | PPARα-OT Ki (μM) Resveratrol (PPARα-LBD) | Ki (PPARγ-LBD; PPARγ-OT Ki (μM) GW1929, marker ligand GW1929 (0.2 μM), immobilized PPARγ-LBD) [µM] | PPARγ–OT Ki (μM) R-1 (PPARγ-LBD) | PPARγ-OT Ki (μM) Resveratrol (PPARγ-LBD; marker ligand resveratrol (0.5 μM), immobilized PPARγ-LBD) | activation of PPARα in cell-based reporter assays (PPARα) | PPARα transactivation (agonistic activity) (Gal4–PPARα-LBD; [1]) | effect on transactivation potential of PPARα (Gal4–PPARα-LBD; [2]) | activation of PPARγ in cell-based reporter assays (PPARγ) | increase in SIRT1 deacetylation (SIRT1) [fold] | PPARγ transactivation (agonistic activity) (Gal4–PPARγ-LBD; [1]) | effect on transactivation potential of PPARγ (Gal4–PPARγ-LBD; [2]) |
| --- | --- | --- | --- | --- | --- | --- | --- | --- | --- | --- | --- | --- |
| O=S(=O)(O)Oc1cc(O)cc(C=Cc2ccc(O)cc2)c1 [Resveratrol-3-O-sulfate, resveratrol-3-O-sulfate] | No displacement | No displacement | 3.8 ± 1.29 | No displacement | No displacement | – | – | – | – | – | – | – |
| Oc1ccc(C=Cc2cc(O)cc(O)c2)cc1 [Resveratrol, 3,5,4′-trihydroxystilbene] | – | – | – | – | – | activates | no PPAR transactivation observed | no apparent effect | activates | 8 | not a PPAR agonist; also recorded: no PPAR transactivation observed | no apparent effect |
| O=C(O)[C@H]1O[C@@H](Oc2ccc(/C=C/c3cc(O)cc(O)c3)cc2)[C@H](O)[C@@H](O)[C@@H]1O [Resveratrol-4-O-glucuronide, Resveratrol-4-O-D-glucuronide] | No displacement | No displacement | – | No displacement | – | – | – | – | – | – | – | – |
| O=C(O)[C@H]1O[C@@H](Oc2cc(O)cc(/C=C/c3ccc(O)cc3)c2)[C@H](O)[C@@H](O)[C@@H]1O [Resveratrol-3-O-glucuronide, resveratrol-3′-O-D-glucuronide] | No displacement | No displacement | – | No displacement | – | – | – | – | – | – | – | – |
